Reference: patent publication US8697690B2, “Isoindolone M1 receptor positive allosteric modulators” (Merck Sharp & Dohme Corp., priority 2010, dated 2014)
pEC50: −log10 of the molar value.

Biological target: T1, acetylcholine muscarinic M1 receptor (Homo sapiens, UniProt P11229)
T1 construct: expressed in transfected cells; host or cells: CHOnfat cells (CHO with NFAT reporter background), Geneticin-selected
T1 sequence (P11229 1-460): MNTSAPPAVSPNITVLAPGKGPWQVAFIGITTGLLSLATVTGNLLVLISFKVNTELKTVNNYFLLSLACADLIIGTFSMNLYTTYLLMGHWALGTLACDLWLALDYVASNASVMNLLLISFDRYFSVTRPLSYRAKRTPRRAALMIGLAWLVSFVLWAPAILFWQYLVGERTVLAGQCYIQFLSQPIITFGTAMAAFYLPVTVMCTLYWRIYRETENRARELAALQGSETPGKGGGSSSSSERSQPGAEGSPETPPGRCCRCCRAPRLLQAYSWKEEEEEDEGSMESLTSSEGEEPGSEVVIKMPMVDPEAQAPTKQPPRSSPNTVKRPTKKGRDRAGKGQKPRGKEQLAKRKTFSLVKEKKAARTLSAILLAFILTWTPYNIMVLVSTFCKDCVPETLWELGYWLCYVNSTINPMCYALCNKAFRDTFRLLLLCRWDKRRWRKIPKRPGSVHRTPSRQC
Assay: muscarinic FLIPR assay: intracellular calcium in CHOnfat/hM1 cells, potentiation of EC20 acetylcholine
Format: cell-based
Details: IP = inflection point calculated from FLIPR values, 4 min preincubation, then EC20 acetylcholine (3 nM final)
Procedure: The assay studies the effect of one or several concentrations of test compounds on basal or acetylcholine-stimulated Ca^2+ levels using FLIPR.
Compounds are prepared and subjected to a preincubation period of 4 min. Thereafter, a single EC20 concentration of acetylcholine is added to each well (3 nM final). The intracellular Ca^2+ level of each sample is measured and compared to an acetylcholine control to determine any modulatory activity.
Cells: CHOnfat/hM1, hM2, hM3 or hM4 cells are plated 24 hr before the assay at a density of 18,000 cells/well (100 μL) in a 384 well plate. CHOnfat/hM1 and CHOnfat/hM3 Growth Medium: 90% DMEM (Hi Glucose); 10% HI FBS; 2 mM L-glutamine; 0.1 mM NEAA; Pen-Strep; and 1 mg/ml Geneticin, are added. For M2Gqi5CHOnfat and M4Gqi5CHOnfat cells, an additional 600 ug/ml hygromycin is added.
Equipment: 384 well plate, 120 μL addition plate; 96-well Whatman 2 ml Uniplate Incubator, 37° C., 5% CO2; Skatron EMBLA-384 Plate Washer; Multimek Pipetting System; Genesis Freedom 200 System; Mosquito System; Temo Nanoliter Pipetting System; and FLIPR^384 Fluorometric Imaging Plate Reader System are used.
Buffers. Assay Buffer: Hanks Balanced Salt Solution, with 20 mM Hepes, 2.5 mM Probenecid (Sigma P-8761) first dissolved in 1 N NaOH, 1% Bovine Serum Albumin (Sigma A-9647). Dye Loading Buffer: Assay Buffer plus 1% Fetal Bovine Serum and Fluo-4AM/Pluronic Acid Mixture. 2 mM Fluo-4AM ester stock in DMSO (Molecular Probes F-14202) Concentration of 2 μM in buffer for a final concentration of 1 μM in Assay. 20% Pluronic Acid Solution stock, with concentration of 0.04% in Buffer, 0.02% in Assay.
65 μL of 2 mM Fluo-4AM are mixed with 130 μL of 20% Pluronic Acid. The resulting solution and 650 μL FBS is added to the assay buffer for a total volume of 65 mL. Positive Controls: 4-Br-A23187: 10 mM in DMSO; final concentration […]. Acetylcholine: 10 mM in water, working stock at both 20 μM and 30 μM in assay buffer, final concentration of 10 μM. This is used to check the maximum stimulation of the CHOK1/hM1 cells. 20 μM (2×) acetylcholine is added in the preincubation part of the assay, and the 30 μM (3×) stock is added in the second part. (EC20)Acetylcholine: 10 mM in water, working stock of 9 nM (3×), and final concentration in assay is 3 nM. This is used after the preincubation with test compounds. Addition of the EC20 Acetylcholine to each well with a test compound will ascertain any modulator activity. 24 wells contain 3 nM Acetylcholine alone as a control.
Determining Activity of Putative Compounds:
Screening Plate Compounds are titrated in 96-well plates (columns 2-11), 100% DMSO, started at a concentration of 15 mM (150× stock concentration), and 3-fold serial dilutions using Genesis Freedom200 System. Four 96-well plates are combined into a 384-well plate using Mosquito Nanoliter Pipetting System by transferring 1 μl of serial diluted compounds to each well, and 1 mM acetylcholine (100× stock concentration) were added as a control. Using Temo, 49 μl assay buffer is added to each well of the 384-well plate right before assay.
In a 96-well Whatman 2 ml Uniplate, 9 nM Acetylcholine (3×) is pipetted into wells corresponding to the screening compounds, and into control wells. The 30 μM acetylcholine control (3×) is added into control wells, and the 3× agonist plate is transferred into a 384 well plate.
Cells are washed three times with 100 μL of buffer, leaving 30 μL of buffer in each well. Using Multimek, 30 μL of Dye Loading Buffer is added into each well and incubated at 37° C., 5% CO2 for up to one hr.
After 60 min, the cells are washed three times with 100 μL of buffer, leaving 30 μL of buffer in each well. The cell plate, screening plate, and agonist addition plates are placed on the platform in the FLIPR and the door closed. A signal test to check background fluorescence and basal fluorescence signal is performed. Laser intensity is adjusted if necessary. […]

`N#Cc1ccc(Cc2cc3c(c4ccccc24)CN([C@H]2CCCC[C@@H]2O)C3=O)cn1` [Example 9, 5-({2-[(1S,2S)-2-Hydroxycyclohexyl]-3-oxo-2,3-dihydro-1H-benzo[e]isoindol-5-yl}methyl)pyridine-2-carbonitrile] showed a pEC50 of 7.89.

For `CC(=O)O[C@H]1COCC[C@@H]1N1Cc2c(cc(Cc3ccc(O)nc3)c3ccccc23)C1=O` [Example 12, 2-O-Acetyl-1,5-anhydro-3,4-dideoxy-3-{3-oxo-5-[(6-oxo-1,6-dihydroyridin-3-yl)methyl]-1,3-dihydro-2H-benzo[e]isoindol-2-yl)-L-threo-pentitol], the pEC50 was 5.28.

With `O=C1c2nc(Cc3ccc(-n4cccn4)nc3)c3ccccc3c2CN1[C@H]1CCCC[C@@H]1O` (racemic) [Example 17, (±)-2-[trans-2-Hydroxycyclohexyl]-5-{[6-(1H-pyrazol-1-yl)pyridine-3-yl]methyl}-1,2-dihydro-3H-pyrrolo[3,4-c]isoquinoline-3-one] the pEC50 was 7.54.

`O=C1c2cc(Cc3ccc(C4CC4)nc3)c3cccnc3c2CN1[C@H]1CCCC[C@@H]1O` [Example 25, 5-[(6-Cyclopropylpyridin-3-yl)methyl]-8-[(1S,2S)-2-hydroxycyclohexyl-8,9-dihydro-7H-pyrrolo 3,4-h]quinolin-7-one] gave a pEC50 of 7.98.

Compound `O=C1c2nc(Cc3ccc(Cl)nc3)c3ccccc3c2CN1[C@H]1CCCC[C@@H]1O` (racemic) [Example 16, (±)-5-[(6-Chloropyridin-3-yl)methyl]-2-[trans-2-hydroxycyclohexyl]-1,2-dihydro-3H-pyrrolo[3,4-c]isoquinoline-3-one] has a pEC50 of 7.31.

`O=C1c2cc(Cc3ccc(O)nc3)c3ccccc3c2CN1[C@H]1CCOC[C@@H]1O` [Example 13, 1,5-Anhydro-2,3-dideoxy-3-{3-oxo-5-[(6-oxo-1,6-dihydropyridin-3-yl)methyl]-1,3-dihydro-2H-benzo[e]isoindol-2-yl}-L-threo-pentitol] gave a pEC50 of 7.70.

`CC1c2c(cc(Cc3ccc(Cl)nc3)c3ccccc23)C(=O)N1c1ccccc1F` (racemic) [Example 15, (±)-5-[(6-Chloropyridin-3-yl)methyl]-2-(2-fluorophenyl)-1-methyl-1,2-dihydro-3H-benzo[e]isoinol-3-one] showed a pEC50 of 6.18.

In the case of `O=C1CCC(Cc2cc3c(c4ncccc24)CN([C@H]2CCCC[C@@H]2O)C3=O)CN1` (stereo partly drawn) [Example 20, 8-[(1S,2S)-2-Hydroxycyclohexyl]-5-[(6-oxopiperidin-3-yl)methyl]-3,9-dihydro-7H-pyrrolo[3,4-h]quinolin-7-one], the pEC50 was 6.70.

`O=C1c2cc(Cc3ccc(Cl)nc3)c3cccnc3c2C(CCO)N1[C@H]1CCCC[C@@H]1O` (stereo partly drawn) [Example 24, 5-[(6-Chloropyridin-3-yl)methyl]-8-[(1S,2S)-2-hydroxycyclohexyl]-9-(2-hydroxyethyl)-8,9-dihydro-7H-pyrrolo[3,4-h]quinolin-7-one] showed a pEC50 of 8.13.

Work on `COc1ccc(Cc2cc3c(c4ccccc24)CN(c2ncccc2C(F)(F)F)C3=O)cn1` [Example 14, 5-[(6-Methoxypyridin-3-yl)methyl]-2-[3-(trifluoromethyl)pyridin-2-yl]-1,2-dihydro-3H-benzo[e]isoindol-3-one] yielded a pEC50 of 6.84.

`O=C1c2cc(Cc3ccc(Cl)nc3)c3ccccc3c2CN1C1C=CCCC1` (stereo not drawn) [Example 5, 5-[(6-Chloropyridin-3-yl)methyl]-2-cyclohex-2-en-1-yl-1,2-dihydro-3H-benzo[e]isoindol-3-one] was tested, and the pEC50 was 5.61.

`O=C1c2cc(Cc3cccnc3)c3ccccc3c2CN1[C@H]1CCCC[C@@H]1O` [Example 6, 2-[(1S,2S)-2-Hydroxycyclohexyl]-5-(pyridin-3-ylmethyl)-1,2-dihydro-3H-benzo[e]isoindol-3-one] showed a pEC50 of 7.96.

`CSc1ccc(Cc2cc3c(c4ccccc24)CN([C@H]2CCCC[C@@H]2O)C3=O)cn1` [Example 10, 2-[(1S,2S)-2-Hydroxycyclohexyl]-5-{[6-(methylthio)pyridine-3-yl]methyl}-1,2-dihydro-3H-benzo[e]isoindol-3-one] was tested, and the pEC50 was 7.54.

`O=C1c2cc(Cc3ccc(Cl)nc3)c3cccnc3c2C(CC(O)CO)N1[C@H]1CCCC[C@@H]1O` (stereo partly drawn) [Example 21, 5-[(6-Chloropyridin-3-yl)methyl]-9-(2,3-dihydroxypropyl)-8-[(1S,2S)-2-hydroxycyclohexyl]-8,9-dihydro-7H-pyrrolo[3,4-h]quinolin-7-one] was tested, and the pEC50 was 7.72.

In the case of `COc1ccc(Cc2cc3c(c4ncccc24)C(C)(C)N([C@H]2CCCC[C@@H]2O)C3=O)cn1` [Example 18, 8-[(1S,2S)-2-Hydroxycyclohexyl]-5-[(6-methoxypyridin-3-yl)methyl]-9,9-dimethyl-8,9-dihydro-7H-pyrrolo[3,4-h]quinolin-7-one], the pEC50 was 6.51.

Work on `C=Cc1ccc(Cc2cc3c(c4ccccc24)CN([C@H]2CCCC[C@@H]2O)C3=O)cn1` [Example 3, 2-[(1S,2S)-2-Hydroxycyclohexyl]-5-[(6-vinylpyridin-3-yl)methyl]-1,2-dihydro-3H-benzo[e]isoindol-3-one] yielded a pEC50 of 7.96.

`Cc1ccc(Cc2cc3c(c4ccccc24)CN([C@H]2CCCC[C@@H]2O)C3=O)cn1` [Example 2, 2-[(1S,2S)-2-Hydroxycyclohexyl]-5-[(6-methylpyridin-3-yl)methyl]-1,2-dihydro-3H-benzo[e]isoindol-3-one] was tested, and the pEC50 was 7.74.

`O=C1c2cc(Cc3ccc(Cl)nc3)c3ccccc3c2CN1[C@H]1CCCC[C@@H]1F` [Example 4, 5-[(6-Chloropyridin-3-yl)methyl]-2-[(2S)-2-fluorocyclohexyl]-1,2-dihydro-3H-benzo[e]isoindol-3-one] gave a pEC50 of 6.51.

Work on `O=C1c2cc(Cc3ccc(N4CCOCC4)nc3)c3ccccc3c2CN1[C@H]1CCCC[C@@H]1O` [Example 7, 2-[(1S,2S)-2-Hydroxycyclohexyl]-5-[(6-morpholin-4-ylpyridin-3-yl)methyl]-1,2-dihydro-3H-benzo[e]isoindol-3-one] yielded a pEC50 of 7.85.

`O=CCC1c2c(cc(Cc3ccc(Cl)nc3)c3cccnc23)C(=O)N1[C@H]1CCCC[C@@H]1O` (stereo partly drawn) [Example 22, {5-[(6-Chloropyridin-3-yl)methyl]-8-[(1S,2S)-2-hydroxycyclohexyl]-7-oxo-8,9-dihydro-7H-pyrrolo[3,4-h]quinolin-9-yl}acetaldehyde] gave a pEC50 of 7.82.

In the case of `COc1ccc(Cc2cc3c(c4ccccc24)CN([C@H]2COCC[C@@H]2O)C3=O)cn1` [Example 11, 2-[(3S,4S)-4-Hydroxytetrahydro-2H-pyran-3-yl]-5-[(6-methoxypyridin-3-yl)methyl]-1,2-dihydro-3H-benzo[e]isoindol-3-one], the pEC50 was 7.28.
